Laboratory results: US20220305178A1, “CANCER TREATMENT BY IN VITRO AMINO ACID DEPRIVATION” (YUANHENG BIOMEDICAL CO., LTD., priority 2021, published 2022)

Assay: Modified hemodialysis of simulated blood with Asparaginase in the dialysate, amino acids by UPLC
Assay type: biochemical, pig
Details: for concentration of Asn of the simulated blood / concentration of Arg of the simulated blood / concentration of Gln of the simulated blood / concentration of Met of the simulated blood / concentration of Ser of the simulated blood: Experimental group 1, Asparaginase 1 K.U./ml in dialysate; for concentration of Arg of the simulated blood / concentration of Gln of the simulated blood / concentration of Met of the simulated blood / concentration of Ser of the simulated blood: non-target amino acid
Method: 900 ml of pig's blood and 100 ml of Gibco Roswell Park Memorial Institute (RPMI) 1640 Medium (RPMI 1640 Medium) were mixed to obtain a diluted pig's blood. The diluted pig's blood was further added with 1.8 mg/ml EDTA-K^2+, 0.05% sodium azide; and 132 μl of Heparin with the concentration of 5000 U/ml to obtain a simulated blood, wherein the concentration of EDTA-K^2+ of the simulated blood was […].
The dialysis machine is Toray TR-321. The dialysate for extracorporeal circulation was triple the amount of the simulated blood and was 3000 ml, and the flow rate of dialysate was 500 ml/min. Before the simulated blood entered the dialysis machine, 1X PBS was used to clean the circulation pipeline of the dialysis machine, to achieve the required balance of the artificial kidney (Polyflux 17L), and to get rid of all bubbles in the artificial kidney, and the circulation speed was 250 ml/min. Besides, the effective membrane area of the artificial kidney is 1.7 m^2.
The dialysate consisted of Buffer A (hemodialysis concentrate No. 16, purchased from Taiwan Biotech Co., LTD), Buffer B (Sodium Bicarbonate Concentrate 8.4%, purchased from Fressenius Medical Care Ag, 61348 Bad Homburg, Germany) and R.O. water, wherein the volume ratio of Buffer A, Buffer B and R.O. water is 1:1.225:32.775.
The target amino acid is Asparagine (Asn), and the rest are non-target amino acids. The 3000 ml dialysate was added with 3 ml of Asparaginase with the concentration of 1000 K.U./ml (LEUNASE®) in the Experimental group 1, so the concentration of Asparaginase in the dialysate is 1 K.U./ml. No Asparaginase was added in the Control group 1.
The conductivity of the dialysate was adjusted to about 14 mS/cm. The dialysis temperature was set to be 37° C. When the pressure of the circulation pipeline, the temperature and the conductivity of the dialysate reached the desirable value and were stable, a green light signaled to indicate that hemodialysis was ready. The simulated blood was pumped into the circulation pipeline and entered the artificial kidney. Besides, the simulated blood was further added with Heparin with the concentration of 5000 U/ml at the flow rate of 4.4 ml/hour before the simulated blood entered the artificial kidney. The concentrations of amino acids in the simulated blood before and after dialysis were detected by ultra performance liquid chromatography (UPLC) and the results were shown in Table 1 and Table 2.

Asparaginase
concentration of Asn of the simulated blood (Polyflux 17L 1.7 m^2, dialysis time 0 min): 41.8 µM | concentration of Asn of the simulated blood (Polyflux 17L 1.7 m^2, dialysis time 3 min): 32.3 µM | concentration of Asn of the simulated blood (Polyflux 17L 1.7 m^2, dialysis time 5 min): 24.2 µM | concentration of Arg of the simulated blood (dialysis time 0 min): 212.4 µM | concentration of Gln of the simulated blood (dialysis time 0 min): 381.8 µM | concentration of Met of the simulated blood (dialysis time 0 min): 38.5 µM | concentration of Ser of the simulated blood (dialysis time 0 min): 159.8 µM | concentration of Arg of the simulated blood (dialysis time 3 min): 83.0 µM | concentration of Gln of the simulated blood (dialysis time 3 min): 147.5 µM | concentration of Met of the simulated blood (dialysis time 3 min): 16.0 µM | concentration of Ser of the simulated blood (dialysis time 3 min): 67.7 µM | concentration of Arg of the simulated blood (dialysis time 5 min): 74.6 µM | concentration of Gln of the simulated blood (dialysis time 5 min): 131.5 µM | concentration of Met of the simulated blood (dialysis time 5 min): 14.4 µM | concentration of Ser of the simulated blood (dialysis time 5 min): 63.2 µM | concentration of Arg of the simulated blood (dialysis time 10 min): 16.9 µM | concentration of Gln of the simulated blood (dialysis time 10 min): 24.2 µM | concentration of Met of the simulated blood (dialysis time 10 min): 3.7 µM | concentration of Ser of the simulated blood (dialysis time 10 min): 17.5 µM | concentration of Arg of the simulated blood (dialysis time 20 min): 14.7 µM | concentration of Gln of the simulated blood (dialysis time 20 min): 18.2 µM | concentration of Met of the simulated blood (dialysis time 20 min): 3.8 µM | concentration of Ser of the simulated blood (dialysis time 20 min): 20.0 µM | concentration of Arg of the simulated blood (dialysis time 30 min): 14.3 µM | concentration of Gln of the simulated blood (dialysis time 30 min): 18.3 µM | concentration of Met of the simulated blood (dialysis time 30 min): 3.5 µM | concentration of Ser of the simulated blood (dialysis time 30 min): 17.8 µM | dialysis time within which Asparagine (Asn) is undetectable (Experimental group 1, simulated blood, LOD of Asparagine 5 μM): ≤ 10 min
